Drawing on PMC7691360, “Synthesis of novel cytotoxic tetracyclic acridone derivatives and study of their molecular docking, ADMET, QSAR, bioactivity and protein binding properties” (Scientific Reports, 2020), this text covers melting point and activity for two compounds.

For one series, the system named is HEK293T cells. The series can be described thus: MTT cytotoxicity assay against HEK293T. In kind it is cell-based. To be noted: Homo sapiens, HEK-293T, 48 h, read-out: Percentage of inhibition against treated concentrations. How it is done: (§1) Anticancer activity of 7a–s has been evaluated by MTT [3-(4,5-dimethylthiazol-2-yl)-2,5-diphenyl-tetrazolium bromide] assay and the cell lines HT29 (ATCC: HTB-38), MDA-MB-231 (ATCC: HTB-26), HEK293T (ATCC: CRL-3216) were procured from American type cell culture collection (ATCC), Manassas, USA and other chemicals were procured from Sigma-Aldrich. Then absorbance (used as a measure of cell proliferation) was measured at 570 nm with a kinetic micro-plate reader (BioTek, Winooski, Vermont).
(§2) Having synthesized a series of the title compounds, all of them were screened for their in vitro anticancer profiles against a panel of human colorectal adenocarcinoma (HT29), human breast adenocarcinoma (MDA-MB-231) and mutated Human embryonic kidney 293 (HEK293T) cancer cell lines by using MTT colourmetric assay as per Johan van Meerloo protocol. The three cell lines were cultured in […] medium and supplemented with 10% FBS followed by 100 units/mL penicillin/ streptomycin and were cultured at 37 °C in 5% CO2. Cell proliferation of the growing cells was measured in terms of logarithmic standards. Analytically, all the cultured cells were plated onto 96 well plates at a starting density of 10^5 cells. Then all the cells were treated with title compounds 7a–s for a period of 48 h with different concentrations. After this incubation cell proliferation inhibition was determined by MTT assay and all the experiments were conducted in triplicates and readings were presented as mean ± SD and provided in Tables 1, 2 and 3.

For another series, the system named is MDA-MB-231 cells. The series can be described thus: MTT cytotoxicity assay against MDA-MB-231. The following applies: Homo sapiens, 48 h, read-out: Percentage of inhibition against treated concentrations; for activity at 1 µM: MDAMB231, 1 µM; for activity at 5 µM: MDAMB231, 5 µM; for activity at 10 µM: MDAMB231, 10 µM; for activity at 25 µM: MDAMB231, 25 µM; for activity at 50 µM: MDAMB231, 50 µM. Type of series: cell-based. The protocol: as §1, §2

The next series concerns HT29 cells. Kind of series: MTT cytotoxicity assay against HT29. To be noted: Homo sapiens, 48 h, read-out: Percentage of inhibition against treated concentrations; for activity at 1 µM: HT-29, HT29, 1 µM; for activity at 5 µM: HT-29, HT29, 5 µM; for activity at 10 µM: HT-29, HT29, 10 µM; for activity at 25 µM: HT-29, HT29, 25 µM; for activity at 50 µM: HT-29, HT29, 50 µM. Type of series: cell-based. The protocol: as §1, §2

Molecules are shown by their SMILES.

Compound `O=C(c1ccccc1F)N1CCn2c3ccccc3c(=O)c3cccc1c32` [Compound 7p, 3-(2-Fluorobenzoyl)-2,3-dihydro-1H,7H-pyrazino[3,2,1-de]acridin-7-one] came in with a melting point of 225 to 227 °C. Further, in the series with HEK293T cells, the activity at 1 µM came to 96.23 ± 0.74%, the activity at 5 µM came to 93.99 ± 0.91%, the activity at 10 µM was 89.17 ± 0.81% and the activity at 25 µM is 82.34 ± 0.34%. Besides, the activity at 50 µM in the series with HEK293T cells is 48.53 ± 0.12%. Also, in the series on MDA-MB-231 cells, the activity at 1 µM came to 89.82 ± 0.36%, the activity at 5 µM was found to be 68.3 ± 0.79%, the activity at 10 µM was 61.77 ± 0.42% and the activity at 25 µM is 51.43 ± 0.36%. Also, in the series on MDA-MB-231 cells, the activity at 50 µM turned out to be 30.3 ± 0.84%. For the same compound, in the series on HT29 cells, the activity at 1 µM stood at 90.43 ± 0.77%, the activity at 5 µM is 74.71 ± 0.22%, the activity at 10 µM turned out to be 65.8 ± 0.76% and the activity at 25 µM worked out at 54.13 ± 0.37%. For the same compound, in the series with HT29 cells, the activity at 50 µM came to 21 ± 0.22%.
Take `O=C(c1ccc(F)cc1)N1CCn2c3ccccc3c(=O)c3cccc1c32` [Compound 7r, 3-(4-Fluorobenzoyl)-2,3-dihydro-1H,7H-pyrazino[3,2,1-de]acridin-7-one]: the melting point was 236 to 238 °C. Further, in the series with HEK293T cells, the activity at 1 µM amounted to 97.98 ± 0.88%, the activity at 5 µM came to 95.25 ± 0.68%, the activity at 10 µM amounted to 92.81 ± 0.21% and the activity at 25 µM amounted to 88.11 ± 0.25%. Besides, in the series with HEK293T cells, the activity at 50 µM came to 51.93 ± 0.23%. In addition, in the series on MDA-MB-231 cells, the activity at 1 µM was 96.33 ± 0.48%, the activity at 5 µM is 86.31 ± 0.21%, the activity at 10 µM was 78.85 ± 0.32% and the activity at 25 µM is 69 ± 0.05%. Also, the activity at 50 µM with MDA-MB-231 cells amounted to 40.7 ± 0.86%. Besides, in the series on HT29 cells, the activity at 1 µM is 91.9 ± 0.93%, the activity at 5 µM is 75.12 ± 0.73%, the activity at 10 µM was found to be 66.15 ± 0.13% and the activity at 25 µM was 55.26 ± 0.23%. Moreover, in the series on HT29 cells, the activity at 50 µM was 21.6 ± 0.24%.
